test system: GUMC-403; experiment: viability at highest tested concentration (max response) relative to DMSO (% of DMSO control); higher = less cytotoxic; settings: library / dose series: MIPE library, 11-point 1:3 dilution; top concentration 46.1 µM; 48 h
In short: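 Viability at the highest tested concentration is given relative to vehicle control. For this, conditionally reprogrammed patient-derived GUMC-403 papilloma cells at 700/well in 1536-well plates were exposed to 23 nL of pinned compound for 48 h. Luminescence from CellTiter-Glo was read on a ViewLux and scaled between empty wells (0%) and vehicle wells (100%).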

SMILES | viability
C#CCC(Cc1cnc2nc(N)nc(N)c2n1)c1ccc(C(=O)N[C@@H](CCC(=O)O)C(=O)O)cc1 (some centres not stated) | 95.2
CC(N[C@H]1C[C@@H]1c1ccccc1)c1ccc2c(c1)OCCO2 (some centres not stated) | 129
CC(C)c1noc(N2CCC(COc3ccc(-c4ccc([S+](C)(=O)[O-])cc4)nc3)CC2)n1 | 91.9
CCOC(=O)N[C@@H]1CC[C@@H]2[C@@H](C1)C[C@H]1C(=O)O[C@H](C)[C@H]1[C@H]2/C=C/c1ccc(-c2cccc(F)c2)cn1 | 123
Nc1nc(Cl)nc2c1ncn2[C@H]1C[C@H](O)[C@@H](CO)O1 | 120
CN(C)CC/C=C1/c2ccccc2COc2ccc(CC(=O)O)cc21 | 100
CCC1(c2ccccc2)C(=O)NCNC1=O | 105
CN(C)CCOc1ccc(/C(=C(/CCCl)c2ccccc2)c2ccccc2)cc1 | 104
C[C@]12CC[C@H]3[C@@H](CC[C@@]45O[C@@H]4C(O)=C(C#N)C[C@]35C)[C@@H]1CC[C@@H]2O | 124
Cc1cc(/C=c2/sc3nc4ccccc4n3c2=O)c(C)n1-c1ccccc1 | 106
OC1=CC(=C(C=C1)\C2=C(O)\C(=O)C3=C(O2)C=C(O)C=C3O)O | 93.9
CCOP(=O)(OCC)C(C)NC(=O)N(CCCl)N=O (configuration not stated) | 111
O=C(O)C(=O)Nc1cccc(-c2nnn[nH]2)c1 | 120
CC(=O)OCC(=O)[C@@]1(O)CC[C@H]2[C@@H]3CCC/4=C/C(=O)/C=C\[C@]4(C)[C@H]3[C@@H](O)C[C@]12C | 123
O=C1NC(=O)[C@@H](c2cn3c4c(cccc24)CCC3)[C@@H]1c1c[nH]c2ccccc12 | 102
CC(C)n1c(/C=C/[C@H](O)C[C@H](O)CC(=O)O)c(-c2ccc(F)cc2)c2ccccc21 | 103
N#CC1(c2cccc(C(=O)Nc3cc(Oc4ccc5nc(NC(=O)C6CC6)sc5n4)ccc3F)c2Cl)CC1 | 71.8
C=C[C@H]1CN2CCC1C[C@@H]2C(O)c1ccnc2ccc(OC)cc12 (some centres not stated) | 101
Cc1cccc(-c2nn(C(=S)Nc3ccccc3)cc2-c2ccnc3ccccc23)n1 | 135
CC1=C(C)C2=C(S1)[N]3C(=NN=C3[C@H](CC(=O)OC(C)(C)C)/N=C2/C4=CC=C(Cl)C=C4)C | 65
C1COC(NC(C2CC2)C2CC2)=N1 | 91.2

SMILES | viability
Cc1[nH]c(/C=C2\C(=O)Nc3ccc([S+](=O)([O-])N(C)c4cccc(Cl)c4)cc32)c(C)c1C(=O)N1CCN(C)CC1 | 138
CCCCc1oc2ccc(NS(C)(=O)=O)cc2c1C(=O)c1ccc(OCCCN(CCCC)CCCC)cc1 | 126
CC(C)[C@H](CO)Nc1nc(Nc2cccc(Cl)c2)c2ncn(C(C)C)c2n1 | 21.1
C#C[C@]1(O)CC[C@H]2[C@@H]3CCc4cc(OC)ccc4[C@H]3CC[C@@]21C | 88.2
O=C(NCCCCN1CCOCC1)c1cc2ccccc2o1 | 106
C=CCc1ccc(O)c(-c2ccc(O)c(CC=C)c2)c1 | 80.6
CCC(=O)O[C@@]1([C@H](C)C[C@H]2[C@@H]3C[C@H](F)\C4=C\C(=O)\C=C/[C@]4(C)[C@@]3(F)[C@@H](O)C[C@]12C)C(=O)SCF | 162
COc1c(C)c2c(c(O)c1C/C=C(\C)CCC(=O)OCCN1CCOCC1)C(=O)OC2 | 112
O=C(NCc1ccccc1)[C@H](Cc1ccccc1)NC(=O)[C@H]1O[C@@H]1C(=O)NCCc1ccc(O)cc1 | 107
CN(C)C(=O)c1ccc([S+](=O)([O-])c2ccc(NC(=O)[C@@](C)(O)C(F)(F)F)c(Cl)c2)cc1 | 113
NC/1=N/[C@]2(COC[C@H]2CS1)C3=CC(=CC=C3F)NC(=O)C4=NC=C(F)C=C4 | 117
COc1cccc2c1[C@]13CCN(CC4CC4)[C@H](C2)[C@]1(OC)CCC(=O)C3 | 107
COc1cc([C@@H]2c3cc4c(cc3[C@@H](O[C@@H]3O[C@@H]5CO[C@@H](c6cccs6)O[C@H]5[C@H](O)[C@H]3O)[C@H]3COC(=O)[C@H]23)OCO4)cc(OC)c1O | 56.7
CC(C)(C)c1cc(C=C(C#N)C#N)cc(Br)c1O | 101
COc1cc2c(Oc3ccc4[nH]c(C)cc4c3F)ncnc2cc1OCCCN1CCCC1 | 64.4
N=C1S/C(=C\c2ccc(-c3ccc4c(c3)C(=O)NC4=O)o2)C(=O)N1c1ccc(Br)cc1 | 142
CC1(C)NC(=O)N(c2ccc([N+](=O)[O-])c(C(F)(F)F)c2)C1=O | 75.8
CN1C(=O)C(Cc2c[nH]c3ccccc23)NC1=S (configuration not stated) | 102
Clc1cc(Cl)cc(CNc2ncncc2-c2ccc3c(c2)OCO3)c1 | 99.6
O=C(OCC#CCSc1nnc(-c2cccc3ccccc23)o1)c1cc2ccccc2s1 | 102
CC(=O)O[C@@]1(CC[C@H]2[C@@H]3\C=C(C)/C4=C/C(=O)CC[C@]4(C)[C@H]3CC[C@]12C)C(C)=O | 127

SMILES | viability
CN1CCN(c2cccc(Nc3nc4c(-c5ccc([S+](C)(=O)[O-])cc5)cccn4n3)c2)CC1 | 125
NCCc1c[nH]cn1 | 135
CN(C)c1ccc(O)c2c1C[C@H]1C[C@H]3[C@H](N(C)C)C(O)=C(C(N)=O)C(=O)[C@@]3(O)C(O)=C1C2=O | 110
c1cc2c(cc1[C@H]1OC[C@H]3[C@@H]1CO[C@@H]3c1ccc3c(c1)OCO3)OCO2 | 124
N[S+](=O)([O-])c1ccc(Nc2nc(OCC3CCCCC3)c3[nH]cnc3n2)cc1 | 46.9
CC1=C(C=CC=C1)N2\C(=N/C3=C(C(=CC=C3)C)C2=O)C[N]4N=CC5=C4N=CN=C5N | 85.3
ClC1=C(N\C2=N\CCN2)C3=NSN=C3C=C1 | 129
Cc1ccccc1C(C(=O)NC1CCCCC1)N(C(=O)CNc1ccc(C#N)cc1)c1cccc(F)c1 (configuration not stated) | 108
Cc1ccc(Nc2nccc(N(C)c3ccc4c(C)n(C)nc4c3)n2)cc1[S+](N)(=O)[O-] | 117
N[S+](=O)([O-])c1cc2c(cc1Cl)NC(C(Cl)Cl)N[S+]2(=O)[O-] (configuration not stated) | 98.6
COC1=C(OCCCN2CCOCC2)C=C3N=CC=C(OC4=CC=C(C=C4F)\C5=C\N=C(\NC6=CC=C(F)C=C6)N(C)C5=O)C3=C1 | 72.6
CC(C)C(=O)Oc1ccc(CO)cc1[C@H](CCN(C(C)C)C(C)C)c1ccccc1 | 84.7
Cc1oncc1C(=O)Nc1ccc(C(F)(F)F)cc1 | 105
COc1ccccc1N1CCN(CCN(C(=O)C2CCCCC2)c2ccccn2)CC1 | 95.3
O=C(N[C@@H](c1ccccc1)[C@@H]1CCCCN1)c1cccc(C(F)(F)F)c1Cl | 99
C=C1C(=O)[C@@]23C(CC[C@@H]1[C@H]2O)[C@@]12CO[C@]3(O)[C@@H](O)[C@@H]1C(C)(C)CC[C@@H]2O (some centres not stated) | 119
Cc1cn2cc(C(=O)N(C)CCO)cc(N[C@@H]3CCOc4cccc(C)c43)c2n1 | 144
Cc1nc(NC(=O)N2CCC[C@H]2C(N)=O)sc1-c1ccnc(C(C)(C)C(F)(F)F)c1 | 42.4
C[C@@H]1C(=O)OC2[C@H](O)[C@]34[C@H]5C[C@@H](C(C)(C)C)[C@]36[C@@H](OC(=O)[C@@H]6O)O[C@@]4(C(=O)O5)[C@]21O (some centres not stated) | 108
CNC(=O)c1ccc(N2C(=S)N(c3ccc(C#N)c(C(F)(F)F)c3)C(=O)C2(C)C)cc1F | 119
C[N+]1(C)[C@@H]2C[C@@H](OC(=O)[C@H](CO)c3ccccc3)C[C@H]1[C@@H]1O[C@@H]12.[Br-] | 120

SMILES | viability
C=C1C(=O)OC2/C=C(/C)CC/C=C(/C)CCC12 (configuration not stated) | 113
O=C(NCC1CN(c2ccc(N3CCOCC3=O)cc2)C(=O)O1)c1ccc(Cl)s1 (configuration not stated) | 127
CCNC(=O)[C@H]1O[C@@H](n2cnc3c(N)nc(NCCc4ccc(CCC(=O)O)cc4)nc32)[C@H](O)[C@@H]1O | 112
CC(=O)O[C@@]1(CC[C@H]2[C@@H]3\C=C(Cl)/C4=C/C(=O)[C@@H]5C[C@@H]5[C@]4(C)[C@H]3CC[C@]12C)C(C)=O | 76.4
CCN(CCO)CCCC(C)Nc1ccnc2cc(Cl)ccc12 (configuration not stated) | 116
C=C[C@H]1CN2CCC1C[C@H]2[C@H](O)c1ccnc2ccc(OC)cc12 (some centres not stated) | 98.4
CCCc1cc(C(N)=S)ccn1 | 112
NC[C@H]1O[C@H](O[C@H]2[C@H](O)[C@@H](O[C@H]3O[C@H](CO)[C@@H](O)[C@H](N)[C@H]3O)[C@H](N)C[C@@H]2N)[C@H](N)C[C@@H]1O | 125
CCOc1cc(CC(=O)N[C@@H](CC(C)C)c2ccccc2N2CCCCC2)ccc1C(=O)O | 143
COC(=O)C\1=C(C)\N\C(=C(/C1C2=CC=CC3=NON=C23)C(=O)OC(C)C)C (configuration not stated) | 89.7
CCc1cc2c(cc1N1CCC(N3CCOCC3)CC1)C(C)(C)c1[nH]c3cc(C#N)ccc3c1C2=O | 97.8
OCCN(CCO)c1nc(N2CCCCC2)c2nc(N(CCO)CCO)nc(N3CCCCC3)c2n1 | 77
CC[S+](=O)([O-])N1CC(CC#N)(n2cc(-c3ncnc4[nH]ccc34)cn2)C1 | 144
C=C1C[C@@]2(O)O[C@@]3(C[C@H]2C(C)C)[C@@H](C)CC[C@@H]13 | 127
C[C@H]1[C@H](O)O[C@@H]2O[C@@]3(C)CC[C@H]4[C@H](C)CC[C@@H]1[C@@]24OO3 | 90.6
CCCCCCCCCCCCCC(=O)N[C@H](CO)[C@H](O)c1ccc([N+](=O)[O-])cc1 | 116
O=C(NOC[C@H](O)CO)c1ccc(F)c(F)c1Nc1ccc(I)cc1F | 101
CC(C)(C)OC(=O)Nc1ccc(-c2cc(C(=O)NCCCCCCC(=O)NO)no2)cc1 | 81.6
CCN(CC)CCN1C(=O)\C(=N/C2=CC=CC=C12)CC3=CC=C(OC)C=C3 | 129

— the supplement of paper PMC6723410
